Laboratory results from US20260098017A1, “NOVEL AROMATIC RING DERIVATIVE CONTAINING AMIDE SUBSTITUTION AND USE THEREOF” (TIANJIN PHARMACEUTICAL BIOTECHNOLOGY CO., LTD., priority 2022, published 2026).

Target: Ba/F3 cell line expressing TYK2 (Homo sapiens, UniProt P29597, cells depend on it, form not given)
Assay: In vitro cellular inhibition assay (Ba/F3 cell proliferation, CellTiter-Glo)
Format: cell-based
Conditions: read-out: IC50 (the source's name)
Procedure: The inhibitory effect of the compounds of formula (I) according to the present invention on the TYK2 signaling pathway in cells was assessed using the following method:
Instrumentation: SpectraMax Paradigm reader.
Method: in this experiment, a Ba/F3 cell line expressing TYK2 was employed to assess the effect of the compounds on cell proliferation inhibition by measuring their effects on cell activity in vitro.
Procedure: a CellTiter-Glo buffer was thawed and placed aside till room temperature. A CellTiter-Glo substrate was placed aside till room temperature and dissolved with the buffer to prepare a CellTiter-Glo working solution. To a 96-well flat bottom transparent drug plate, 98 μL of cell culture medium and 2 μL of gradient diluted compound solution were added. The drug plate was placed aside for 10 min, and then 50 μL of the CellTiter-Glo working solution was added. The drug plate was subsequently shaken on an orbital shaker for 2 min and placed aside at room temperature for an additional 10 min. Finally, the luminescence signal was measured on the SpectraMax Paradigm reader.
Data Analysis: the cell proliferation inhibition rate data were processed using the following formula:
Inhibition Rate (Inh %)=100−(RLUDrug−RLUMin)/(RLUMax−RLUMin)×100%.
The inhibition rates of compounds with different concentrations were calculated in EXCEL, and then GraphPad Prism software was employed to plot inhibition rate curve and calculate relevant parameters, including maximum and minimum cell inhibition rates, IC50 values.

Row | SMILES | GI50 [nM]
1 | [2H]C([2H])([2H])NC(=O)c1nnc(NC(=O)C2CC2)cc1Nc1cccc(C(=O)Nc2ccccc2C)c1OC [Example 10] | 5 to 10
2 | [2H]C([2H])([2H])NC(=O)c1cnc(NC(=O)C2CC2)cc1Nc1cccc(C(=O)Nc2ccc(CC)cc2)c1OC [Example 70] | 5 to 10
3 | [2H]C([2H])([2H])NC(=O)c1cnc(NC(=O)C2CC2)cc1Nc1cccc(C(=O)Nc2ccc(C(F)(F)F)c(C)c2)c1OC [Example 81] | 5 to 10
4 | [2H]C([2H])([2H])NC(=O)c1nnc(NC(=O)C2CC2)cc1Nc1cccc(C(=O)Nc2ccc(C#N)c(C)c2)c1OC [Example 30] | 5 to 10
5 | [2H]C([2H])([2H])NC(=O)c1cnc(NC(=O)C2CC2)cc1Nc1cccc(C(=O)Nc2ccc(C3CC3)cc2)c1OC [Example 71] | 5 to 10

Second part, the molecule after the results:

Row | GI50 [nM] | SMILES
6 | 5 to 10 | [2H]C([2H])([2H])NC(=O)c1cnc(NC(=O)C2CC2)cc1Nc1cccc(C(=O)Nc2cccc(C)n2)c1OC [Example 89]
7 | 5 to 10 | [2H]C([2H])([2H])NC(=O)c1nnc(NC(=O)C2CC2)cc1Nc1cccc(C(=O)Nc2ccncc2)c1OC [Example 50]
8 | 5 to 10 | [2H]C([2H])([2H])NC(=O)c1nnc(NC(=O)C2CC2)cc1Nc1cccc(C(=O)Nc2ccc(C(C)C)cc2)c1OC [Example 20]
